Activity calls are given as the source filed them.
Key:
Mu-type opioid receptor = Mu-type opioid receptor (Homo sapiens, UniProt P35372); format: functional, cell-based;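 note: U2OS cells with beta-arrestin recruitment to OPRM1 by beta-gal complementation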
[1] = target: 5-hydroxytryptamine receptor 2A (Mus musculus, UniProt P35363); format: functional, cell-based;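 note: CHO-K1 cells with tagged receptor and beta-arrestin; agonist potency measured as compound-induced activation of the receptor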
Albumin = Albumin (Bos taurus, UniProt P02769); assay: Counterscreen for inhibitors of T-cell receptor (TCR)-CD3 interaction: Fluorescence-based biochemical high throughput dose response assay to identify inhibitors of T-cell receptor (TCR)-CD3 interaction using a TAMRA-labeled BSA probe.; format: functional
[2] = cytotoxicity toward NIH3T3 fibroblasts, dose response, counter-screen, cell-based, ATP luminescence, mouse fibroblasts (AID 2010); format: functional;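 note: cells exposed to compound for about 90 hours before reading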
[3] = inhibitors of intracellular T. cruzi replication, confirmation, NIH3T3 host cells, beta-gal luminescence (AID 2044); format: functional, cell-based;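 note: intracellular parasites grown in NIH/3T3 mouse fibroblasts as host cells; luminescent beta-galactosidase reporter signal from transgenic T. cruzi replicating inside host cells; inhibitors lower the luminescence signal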
[4] = target: SWI/SNF-related matrix-associated actin-dependent regulator of chromatin subfamily A member 2 (Homo sapiens, UniProt P51531); assay: Luminescence-based cell-based high throughput dose response assay to identify activators of the function of SWI/SNF related, matrix associated, actin dependent regulator of chromatin, subfamily a, member 2 (SMARCA2, BRM).; format: functional
[5] = Counterscreen for activators of the function of SWI/SNF related, matrix associated, actin dependent regulator of chromatin, subfamily a, member 2 (SMARCA2, BRM): Luminescence-based cell-based high throughput dose response assay to identify non-selective compounds using the VP16 reporter assay.; format: functional
[6] = target: T1, Sentrin-specific protease 8 (Homo sapiens, UniProt Q96LD8); format: functional
T1 sequence (Q96LD8 whole entry): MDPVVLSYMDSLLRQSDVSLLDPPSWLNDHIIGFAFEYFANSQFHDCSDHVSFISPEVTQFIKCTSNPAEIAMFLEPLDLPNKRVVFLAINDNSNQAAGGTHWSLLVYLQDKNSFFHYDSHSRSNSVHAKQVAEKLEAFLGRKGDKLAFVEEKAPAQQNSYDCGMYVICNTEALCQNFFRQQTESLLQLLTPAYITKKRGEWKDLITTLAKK

[7] = target: T1, Sentrin-specific protease 8; format: functional; remark: listed apart in the source
[8] = target: COUP transcription factor 2 (Homo sapiens, UniProt P24468); assay: Luminescence-based cell-based high throughput dose response assay to identify inhibitors of COUP-TFII (NR2F2).; format: functional;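 note: HEK293 cells transiently cotransfected with COUP-TFII expression vector and reporter; luciferase reporter luminescence driven by COUP-TFII from the pX2-168 reporter plasmid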
[9] = CEM21 lymphoblast cell cytotoxicity, dose response, cytotoxicity control for viral fusion inhibitor project, CellTiter-Glo luminescence, cherry-picked (AID 652042); format: functional, cell-based;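 note: potency for signal decrease meaning cytotoxicity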
[10] = ZM109 Env clade C HIV-1 fusion inhibitors, dose response, HeLa effector, CEM target cells, luciferase, cherry-pick (AID 652058); format: functional, cell-based
[11] = off-target signal loss in HeLa-CEM21 co-culture – HeLa F-luc CTL cells, cherry-picked, counter-screen for HIV-1 Env fusion inhibitor project, dose response (AID 652040); format: functional, cell-based;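 note: potency for signal decrease marking cytotoxic or nonspecific inhibition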
[12] = inhibitors of clade B AD8 Env fusion, dose response, cell-based, cherry-pick (AID 652062); format: functional;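 note: luciferase signal from cell-cell fusion driven by HIV-1 clade B AD8 Env; potency is for inhibitors of fusion seen as a drop in luminescence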
[13] = inhibitors of HIV Env-driven cell fusion, dose response, cherry-pick (AID 652057); format: functional, cell-based
[14] = target: T2, Corticotropin-releasing factor receptor 2/Corticotropin-releasing factor-binding protein (Homo sapiens, UniProt P24387+Q13324); assay: Dose Response confirmation of uHTS hits for small molecule antagonists of the CRF-binding protein and CRF-R2 receptor complex.; format: functional; details: read-out: IC50_Mean
T2 sequence (Q13324 whole entry): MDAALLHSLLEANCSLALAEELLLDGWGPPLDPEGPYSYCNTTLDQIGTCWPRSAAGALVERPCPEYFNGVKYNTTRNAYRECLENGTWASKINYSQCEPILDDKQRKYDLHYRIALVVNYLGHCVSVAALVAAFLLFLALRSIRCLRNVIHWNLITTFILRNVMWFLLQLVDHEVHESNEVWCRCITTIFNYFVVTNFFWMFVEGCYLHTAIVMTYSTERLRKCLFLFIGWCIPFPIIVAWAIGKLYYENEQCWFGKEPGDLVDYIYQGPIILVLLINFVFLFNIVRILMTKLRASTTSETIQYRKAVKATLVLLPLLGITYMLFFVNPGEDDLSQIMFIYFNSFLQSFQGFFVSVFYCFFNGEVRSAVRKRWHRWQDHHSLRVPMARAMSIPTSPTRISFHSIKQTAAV
T2 sequence (P24387 whole entry): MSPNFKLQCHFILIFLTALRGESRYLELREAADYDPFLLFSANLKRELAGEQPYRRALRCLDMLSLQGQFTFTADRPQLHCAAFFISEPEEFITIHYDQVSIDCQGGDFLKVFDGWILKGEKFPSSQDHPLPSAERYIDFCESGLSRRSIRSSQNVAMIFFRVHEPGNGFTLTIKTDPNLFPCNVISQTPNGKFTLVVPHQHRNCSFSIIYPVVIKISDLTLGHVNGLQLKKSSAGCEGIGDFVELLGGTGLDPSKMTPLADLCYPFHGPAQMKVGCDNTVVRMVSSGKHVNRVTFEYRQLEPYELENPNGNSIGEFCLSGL

[15] = target: T2, Corticotropin-releasing factor receptor 2/Corticotropin-releasing factor-binding protein; assay: activators of CRF receptor 2 with binding protein – uHTS hits, confirmation (AID 602473); format: functional; details: read-out: EC50_Mean
[16] = target: T3, Oxysterols receptor LXR-beta (Homo sapiens, UniProt P55055); format: functional, cell-based;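 note: Cell-based luminescence dose-response assay of agonist activity at LXR, run as a confirmatory counterscreen to a daf-12 agonist screen; HEK293 cells with Gal4-LXR fusion and GAL4-driven luciferase reporter; agonist potency from rising luciferase signal of a Gal4-LXR reporter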
T3 sequence (P55055 whole entry): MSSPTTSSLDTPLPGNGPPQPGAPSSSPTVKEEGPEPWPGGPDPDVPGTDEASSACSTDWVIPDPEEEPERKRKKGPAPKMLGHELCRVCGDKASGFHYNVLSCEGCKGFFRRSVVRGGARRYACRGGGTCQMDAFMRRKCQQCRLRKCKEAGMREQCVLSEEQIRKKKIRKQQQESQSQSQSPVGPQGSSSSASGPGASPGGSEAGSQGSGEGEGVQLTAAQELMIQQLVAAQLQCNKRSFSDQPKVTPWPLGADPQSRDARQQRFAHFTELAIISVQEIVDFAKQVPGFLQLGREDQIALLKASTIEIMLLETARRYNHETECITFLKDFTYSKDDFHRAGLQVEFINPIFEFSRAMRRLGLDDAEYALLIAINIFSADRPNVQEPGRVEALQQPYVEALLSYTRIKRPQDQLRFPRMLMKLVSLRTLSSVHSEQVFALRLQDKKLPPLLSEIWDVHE

Sequence of 5-hydroxytryptamine receptor 2A (P35363 whole entry): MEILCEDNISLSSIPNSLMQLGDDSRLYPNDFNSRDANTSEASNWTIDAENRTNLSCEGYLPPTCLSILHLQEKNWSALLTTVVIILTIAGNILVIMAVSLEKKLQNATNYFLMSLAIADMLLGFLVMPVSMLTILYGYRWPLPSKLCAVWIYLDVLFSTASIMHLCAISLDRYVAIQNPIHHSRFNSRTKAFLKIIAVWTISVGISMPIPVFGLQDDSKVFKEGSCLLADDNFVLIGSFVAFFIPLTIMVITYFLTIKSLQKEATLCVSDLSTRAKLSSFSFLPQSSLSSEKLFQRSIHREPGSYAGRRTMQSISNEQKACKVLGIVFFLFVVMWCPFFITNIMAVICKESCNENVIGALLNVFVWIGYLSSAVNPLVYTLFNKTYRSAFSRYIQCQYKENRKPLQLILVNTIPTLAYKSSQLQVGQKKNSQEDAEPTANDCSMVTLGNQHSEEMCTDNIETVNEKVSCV
Sequence of Mu-type opioid receptor (P35372 whole entry): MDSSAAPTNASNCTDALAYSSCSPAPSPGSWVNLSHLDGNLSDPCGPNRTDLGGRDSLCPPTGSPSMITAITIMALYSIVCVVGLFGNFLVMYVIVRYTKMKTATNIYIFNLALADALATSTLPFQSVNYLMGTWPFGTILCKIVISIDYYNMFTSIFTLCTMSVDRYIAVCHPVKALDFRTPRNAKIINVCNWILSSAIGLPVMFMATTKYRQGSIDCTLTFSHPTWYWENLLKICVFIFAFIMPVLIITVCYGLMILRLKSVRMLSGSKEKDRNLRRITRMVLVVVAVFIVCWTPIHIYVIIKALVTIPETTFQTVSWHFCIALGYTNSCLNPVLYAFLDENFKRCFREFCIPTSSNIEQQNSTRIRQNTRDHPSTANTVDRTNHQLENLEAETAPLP
Sequence of COUP transcription factor 2 (P24468 whole entry, the tested form may be a part): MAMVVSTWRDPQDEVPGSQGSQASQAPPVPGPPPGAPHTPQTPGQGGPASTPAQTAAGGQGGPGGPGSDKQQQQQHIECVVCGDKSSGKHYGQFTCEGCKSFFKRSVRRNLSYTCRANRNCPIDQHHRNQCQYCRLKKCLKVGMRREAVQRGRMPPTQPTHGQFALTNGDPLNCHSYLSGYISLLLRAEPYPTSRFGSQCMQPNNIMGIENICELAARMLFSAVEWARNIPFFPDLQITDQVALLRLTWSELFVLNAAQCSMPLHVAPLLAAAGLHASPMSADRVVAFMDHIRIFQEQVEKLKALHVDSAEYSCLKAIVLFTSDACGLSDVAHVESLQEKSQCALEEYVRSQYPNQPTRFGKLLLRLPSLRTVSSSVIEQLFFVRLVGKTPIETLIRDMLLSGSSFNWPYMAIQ
Sequence of SWI/SNF-related matrix-associated actin-dependent regulator of chromatin subfamily A member 2 (P51531 whole entry): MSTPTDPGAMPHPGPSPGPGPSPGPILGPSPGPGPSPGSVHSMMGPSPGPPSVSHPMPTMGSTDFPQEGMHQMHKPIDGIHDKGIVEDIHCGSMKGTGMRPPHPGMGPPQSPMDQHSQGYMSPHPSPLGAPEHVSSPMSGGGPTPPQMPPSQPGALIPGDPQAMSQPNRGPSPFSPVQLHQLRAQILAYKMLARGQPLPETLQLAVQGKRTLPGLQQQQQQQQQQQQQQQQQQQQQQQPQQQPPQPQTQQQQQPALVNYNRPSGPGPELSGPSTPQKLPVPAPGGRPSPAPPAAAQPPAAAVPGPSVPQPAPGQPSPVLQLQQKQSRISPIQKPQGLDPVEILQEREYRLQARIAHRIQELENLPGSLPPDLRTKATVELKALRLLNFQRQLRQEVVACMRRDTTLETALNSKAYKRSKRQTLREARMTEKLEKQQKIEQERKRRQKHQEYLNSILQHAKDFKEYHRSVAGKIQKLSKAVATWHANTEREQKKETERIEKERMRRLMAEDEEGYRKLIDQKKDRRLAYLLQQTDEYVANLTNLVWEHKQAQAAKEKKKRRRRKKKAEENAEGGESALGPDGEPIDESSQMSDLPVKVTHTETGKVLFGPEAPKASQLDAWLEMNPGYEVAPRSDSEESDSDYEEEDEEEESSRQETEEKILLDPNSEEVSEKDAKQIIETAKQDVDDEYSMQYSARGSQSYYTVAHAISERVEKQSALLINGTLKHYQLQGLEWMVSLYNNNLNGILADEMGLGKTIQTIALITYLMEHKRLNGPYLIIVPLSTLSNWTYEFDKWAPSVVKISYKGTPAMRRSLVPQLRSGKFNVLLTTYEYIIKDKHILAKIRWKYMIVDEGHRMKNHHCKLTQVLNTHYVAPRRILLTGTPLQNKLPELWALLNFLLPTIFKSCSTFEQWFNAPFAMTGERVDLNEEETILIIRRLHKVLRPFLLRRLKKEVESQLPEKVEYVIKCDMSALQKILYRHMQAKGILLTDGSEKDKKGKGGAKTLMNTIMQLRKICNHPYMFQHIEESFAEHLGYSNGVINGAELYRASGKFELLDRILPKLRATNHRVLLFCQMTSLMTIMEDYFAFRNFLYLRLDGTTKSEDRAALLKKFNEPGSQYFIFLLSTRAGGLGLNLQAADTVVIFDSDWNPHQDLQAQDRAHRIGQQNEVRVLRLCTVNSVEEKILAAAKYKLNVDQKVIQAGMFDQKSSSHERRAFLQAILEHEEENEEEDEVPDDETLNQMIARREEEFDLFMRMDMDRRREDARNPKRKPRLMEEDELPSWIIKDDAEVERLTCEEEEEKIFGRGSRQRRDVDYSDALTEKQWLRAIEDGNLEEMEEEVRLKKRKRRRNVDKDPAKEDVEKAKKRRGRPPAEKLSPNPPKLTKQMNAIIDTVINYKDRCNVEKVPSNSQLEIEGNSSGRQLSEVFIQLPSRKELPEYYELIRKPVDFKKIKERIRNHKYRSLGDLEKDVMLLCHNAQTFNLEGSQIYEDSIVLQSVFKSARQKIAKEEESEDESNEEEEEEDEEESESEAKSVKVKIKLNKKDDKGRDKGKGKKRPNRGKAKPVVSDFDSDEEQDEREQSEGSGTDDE
Sequence of Albumin (P02769 whole entry): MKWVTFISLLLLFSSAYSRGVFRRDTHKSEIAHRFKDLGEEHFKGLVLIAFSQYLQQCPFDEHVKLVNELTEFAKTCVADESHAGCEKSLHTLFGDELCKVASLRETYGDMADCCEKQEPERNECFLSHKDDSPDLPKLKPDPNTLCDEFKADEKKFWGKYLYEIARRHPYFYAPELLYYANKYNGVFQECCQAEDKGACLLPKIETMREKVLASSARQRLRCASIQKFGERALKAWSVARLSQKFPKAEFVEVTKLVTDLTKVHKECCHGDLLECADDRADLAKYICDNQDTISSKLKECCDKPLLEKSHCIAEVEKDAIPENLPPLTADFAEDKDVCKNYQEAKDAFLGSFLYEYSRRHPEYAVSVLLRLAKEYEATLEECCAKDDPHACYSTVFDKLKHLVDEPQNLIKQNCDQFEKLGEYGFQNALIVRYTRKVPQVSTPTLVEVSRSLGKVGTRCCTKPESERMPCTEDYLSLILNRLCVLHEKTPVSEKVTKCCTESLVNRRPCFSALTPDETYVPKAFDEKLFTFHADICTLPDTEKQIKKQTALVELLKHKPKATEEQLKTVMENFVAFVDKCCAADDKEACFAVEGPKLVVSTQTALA

**Q.** What does the source list for `O=C(CNCc1cccs1)Nc1cc(S(=O)(=O)N2CCCC2)ccc1Cl`?
**A.** EC50 (Mu-type opioid receptor): 92.5 µM (inactive); EC50 [1]: 18.4 µM (inactive)

**Q.** What does the source list for `COc1ccc(NS(=O)(=O)c2cc(NC(=O)/C=C/c3cc(OC)c(OC)c(OC)c3)ccc2N2CCCCC2)cc1`?
**A.** IC50 (Albumin): > 94.1 µM (inactive); EC50 [2]: > 60 µM (not active); EC50 [3]: 1.63 µM (active)

**Q.** What does the source list for `Cc1cccc(CSc2ccc(-c3cccs3)nn2)c1`?
**A.** EC50 [4]: > 91.1 µM (inactive); EC50 [5]: > 91.1 µM (inactive)

**Q.** For `COc1ccc2c(c1)C(=O)N(c1ccccc1OC)C(=O)C2`, which IC50 [6] is on record?
**A.** Its IC50 is 15.4 µM (active).

**Q.** What about the IC50 [7] of the same compound?
**A.** Its IC50 is > 100 µM (inactive).

**Q.** For `CCOC(=O)N1CCC(Nc2ncnc3c2cnn3-c2ccc(C)cc2C)CC1`, which IC50 [8] is on record?
**A.** Its IC50 is 13.6 µM (inactive).

**Q.** For `CCOc1cccc(-c2nnc3sc(C4CCCCC4)nn23)c1`, which AC50 [9] is on record?
**A.** Its AC50 is 49.9 µM (active).

**Q.** What about the AC50 [10] of the same compound?
**A.** The AC50 was 21.4 µM (active).

**Q.** And the AC50 [11]?
**A.** Its AC50 is 46 µM (active).

**Q.** And the AC50 [12]?
**A.** The AC50 was 7.17 µM (active).

**Q.** And the AC50 [13]?
**A.** The AC50 was 5.97 µM (active).

**Q.** What does the source list for `CC(=O)N1CCC(N2CCCC(C(=O)c3cccc(Cl)c3)C2)CC1` (stereo unspecified)?
**A.** EC50 (Mu-type opioid receptor): 92.5 µM (inactive); IC50 [14]: > 47.1 µM (inactive); EC50 [1]: 0.764 µM (active); EC50 [15]: > 53 µM (inactive)

**Q.** Which EC50 [16] does the source give for `Cc1cc(C(=O)Cn2nnc3ccccc3c2=O)c(C)n1Cc1cccs1` here?
**A.** Its EC50 is > 67.6 µM (inactive).

**Q.** What about the EC50 (cells) of the same compound?
**A.** The EC50 was > 67.6 µM (inactive).

Reference: ChEMBL document CHEMBL1201862, “PubChem BioAssay data set” (2004)
